Results reported in ChEMBL document CHEMBL1201862, “PubChem BioAssay data set” (2004).
The source made the active and inactive calls.

What was measured:
Assay type in all cases: functional
[1] = NIH-3T3 fibroblast cytotoxicity, dose response, cytotoxicity control, cell-based, fluorescence, Alamar Blue, secondary assay (AID 2327);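 further: NIH-3T3 mouse fibroblasts cultured with fluconazole at 8 µg/mL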
[2] = target: Non-receptor tyrosine-protein kinase TYK2 (Homo sapiens, UniProt P29597)
[3] = target: MAP/microtubule affinity-regulating kinase 3 (Homo sapiens, UniProt P27448);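 further: MARK3 affinity measured as one member of a kinome panel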
[4] = target: Serine/threonine-protein kinase DCLK1 (Homo sapiens, UniProt O15075);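 further: affinity for DCLK1 (listed as DCAMKL1) measured as one member of a kinome-wide kinase profiling panel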
[5] = target: Casein kinase II subunit alpha (Homo sapiens, UniProt P68400)
[6] = target: Tyrosine-protein kinase receptor TYRO3 (Homo sapiens, UniProt Q06418);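 further: TYRO3 value obtained as one member of a kinome-wide profiling panel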
[7] = target: Mitogen-activated protein kinase 14 (Homo sapiens, UniProt Q16539);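 further: part of a kinome-wide panel, MAPK14 entry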
[8] = target: Casein kinase I isoform delta (Homo sapiens, UniProt P48730);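 further: measured as one member (CSNK1D) of a kinome panel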
[9] = target: T1, Hexokinase HKDC1 (Homo sapiens, UniProt Q2TB90); experiment: inhibition of HKDC1 glucose phosphorylation – biochemical, W721R variant, dose response (AID 504729)
T1 sequence (Q2TB90 whole entry): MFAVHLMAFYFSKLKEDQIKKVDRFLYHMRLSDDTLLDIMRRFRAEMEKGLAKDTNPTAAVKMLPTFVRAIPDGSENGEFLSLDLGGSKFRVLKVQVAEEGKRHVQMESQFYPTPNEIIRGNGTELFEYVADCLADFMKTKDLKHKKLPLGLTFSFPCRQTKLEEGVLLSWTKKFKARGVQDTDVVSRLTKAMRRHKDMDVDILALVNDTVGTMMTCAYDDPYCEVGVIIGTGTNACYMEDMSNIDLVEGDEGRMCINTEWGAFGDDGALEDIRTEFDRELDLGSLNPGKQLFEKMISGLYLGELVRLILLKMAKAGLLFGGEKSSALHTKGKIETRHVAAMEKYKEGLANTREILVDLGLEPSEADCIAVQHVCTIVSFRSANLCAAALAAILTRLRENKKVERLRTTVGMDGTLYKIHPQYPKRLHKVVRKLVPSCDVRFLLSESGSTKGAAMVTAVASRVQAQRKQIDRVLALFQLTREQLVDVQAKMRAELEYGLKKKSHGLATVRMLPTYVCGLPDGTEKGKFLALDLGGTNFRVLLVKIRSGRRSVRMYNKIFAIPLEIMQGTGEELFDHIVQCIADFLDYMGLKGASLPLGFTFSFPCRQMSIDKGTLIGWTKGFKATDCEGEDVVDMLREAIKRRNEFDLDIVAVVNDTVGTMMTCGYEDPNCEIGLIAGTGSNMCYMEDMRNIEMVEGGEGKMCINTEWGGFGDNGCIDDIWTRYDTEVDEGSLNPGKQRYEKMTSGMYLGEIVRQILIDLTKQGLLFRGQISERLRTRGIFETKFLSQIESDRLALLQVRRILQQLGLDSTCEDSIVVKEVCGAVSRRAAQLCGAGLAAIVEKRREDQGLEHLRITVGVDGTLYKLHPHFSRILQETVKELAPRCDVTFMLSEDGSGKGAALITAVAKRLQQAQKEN

Chain of Mitogen-activated protein kinase 14 (Q16539 whole entry, canonical isoform): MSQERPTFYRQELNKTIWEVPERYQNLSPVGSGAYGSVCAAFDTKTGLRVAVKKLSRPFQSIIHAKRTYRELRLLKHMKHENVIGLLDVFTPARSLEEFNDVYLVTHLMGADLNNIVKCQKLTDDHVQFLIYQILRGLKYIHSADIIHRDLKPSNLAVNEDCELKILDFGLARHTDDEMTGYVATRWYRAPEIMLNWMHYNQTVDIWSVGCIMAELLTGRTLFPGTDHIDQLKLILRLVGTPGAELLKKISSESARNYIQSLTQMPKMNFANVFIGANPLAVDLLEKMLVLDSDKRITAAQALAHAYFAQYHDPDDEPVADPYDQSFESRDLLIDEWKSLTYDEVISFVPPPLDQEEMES
Chain of Non-receptor tyrosine-protein kinase TYK2 (P29597 whole entry): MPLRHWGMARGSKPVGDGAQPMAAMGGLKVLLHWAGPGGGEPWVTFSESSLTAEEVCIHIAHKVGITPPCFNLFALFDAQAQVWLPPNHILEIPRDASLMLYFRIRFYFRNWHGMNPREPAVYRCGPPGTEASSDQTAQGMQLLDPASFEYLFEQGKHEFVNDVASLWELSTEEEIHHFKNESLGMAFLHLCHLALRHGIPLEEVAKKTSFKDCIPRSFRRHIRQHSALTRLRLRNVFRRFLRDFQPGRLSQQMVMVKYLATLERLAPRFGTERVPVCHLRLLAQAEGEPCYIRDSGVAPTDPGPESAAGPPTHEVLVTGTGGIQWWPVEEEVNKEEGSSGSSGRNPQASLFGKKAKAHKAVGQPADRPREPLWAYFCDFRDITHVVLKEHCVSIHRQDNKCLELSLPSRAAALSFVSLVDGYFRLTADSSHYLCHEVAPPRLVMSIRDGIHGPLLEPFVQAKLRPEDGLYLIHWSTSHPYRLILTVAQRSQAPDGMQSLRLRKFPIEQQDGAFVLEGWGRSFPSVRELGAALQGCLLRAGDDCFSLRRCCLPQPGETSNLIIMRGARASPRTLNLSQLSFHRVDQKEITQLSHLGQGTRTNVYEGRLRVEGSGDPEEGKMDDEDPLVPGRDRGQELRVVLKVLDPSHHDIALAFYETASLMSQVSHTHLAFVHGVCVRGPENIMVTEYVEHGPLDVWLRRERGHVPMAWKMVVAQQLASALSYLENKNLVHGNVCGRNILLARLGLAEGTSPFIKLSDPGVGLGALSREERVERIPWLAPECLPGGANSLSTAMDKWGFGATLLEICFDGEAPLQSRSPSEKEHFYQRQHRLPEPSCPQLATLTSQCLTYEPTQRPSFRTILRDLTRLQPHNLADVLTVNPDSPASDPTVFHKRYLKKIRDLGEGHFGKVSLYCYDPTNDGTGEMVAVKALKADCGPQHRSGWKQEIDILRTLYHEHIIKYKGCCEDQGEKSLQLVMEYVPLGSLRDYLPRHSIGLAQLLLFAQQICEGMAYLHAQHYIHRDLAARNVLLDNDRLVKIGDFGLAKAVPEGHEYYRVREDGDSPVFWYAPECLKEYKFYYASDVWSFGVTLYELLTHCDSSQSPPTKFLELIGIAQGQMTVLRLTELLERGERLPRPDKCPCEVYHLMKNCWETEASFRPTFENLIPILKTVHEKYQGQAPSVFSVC
Chain of Serine/threonine-protein kinase DCLK1 (O15075 whole entry): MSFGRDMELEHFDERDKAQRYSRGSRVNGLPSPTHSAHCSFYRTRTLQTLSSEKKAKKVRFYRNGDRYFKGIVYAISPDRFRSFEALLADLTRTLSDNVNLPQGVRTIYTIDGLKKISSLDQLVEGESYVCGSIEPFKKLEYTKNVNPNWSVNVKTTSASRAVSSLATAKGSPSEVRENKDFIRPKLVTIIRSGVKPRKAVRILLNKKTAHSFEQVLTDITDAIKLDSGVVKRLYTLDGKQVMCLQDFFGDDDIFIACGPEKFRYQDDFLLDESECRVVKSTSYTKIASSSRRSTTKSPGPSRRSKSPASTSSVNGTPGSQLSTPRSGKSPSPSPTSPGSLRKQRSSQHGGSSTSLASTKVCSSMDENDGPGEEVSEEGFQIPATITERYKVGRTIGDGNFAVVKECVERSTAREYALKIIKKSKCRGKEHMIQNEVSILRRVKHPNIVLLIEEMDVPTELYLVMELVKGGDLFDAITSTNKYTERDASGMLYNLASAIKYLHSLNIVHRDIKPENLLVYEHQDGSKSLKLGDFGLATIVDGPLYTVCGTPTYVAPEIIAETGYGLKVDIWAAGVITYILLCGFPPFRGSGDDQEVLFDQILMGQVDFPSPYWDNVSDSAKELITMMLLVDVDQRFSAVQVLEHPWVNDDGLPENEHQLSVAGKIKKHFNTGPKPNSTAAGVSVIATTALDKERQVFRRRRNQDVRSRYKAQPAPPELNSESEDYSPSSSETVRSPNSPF
Chain of Tyrosine-protein kinase receptor TYRO3 (Q06418 whole entry): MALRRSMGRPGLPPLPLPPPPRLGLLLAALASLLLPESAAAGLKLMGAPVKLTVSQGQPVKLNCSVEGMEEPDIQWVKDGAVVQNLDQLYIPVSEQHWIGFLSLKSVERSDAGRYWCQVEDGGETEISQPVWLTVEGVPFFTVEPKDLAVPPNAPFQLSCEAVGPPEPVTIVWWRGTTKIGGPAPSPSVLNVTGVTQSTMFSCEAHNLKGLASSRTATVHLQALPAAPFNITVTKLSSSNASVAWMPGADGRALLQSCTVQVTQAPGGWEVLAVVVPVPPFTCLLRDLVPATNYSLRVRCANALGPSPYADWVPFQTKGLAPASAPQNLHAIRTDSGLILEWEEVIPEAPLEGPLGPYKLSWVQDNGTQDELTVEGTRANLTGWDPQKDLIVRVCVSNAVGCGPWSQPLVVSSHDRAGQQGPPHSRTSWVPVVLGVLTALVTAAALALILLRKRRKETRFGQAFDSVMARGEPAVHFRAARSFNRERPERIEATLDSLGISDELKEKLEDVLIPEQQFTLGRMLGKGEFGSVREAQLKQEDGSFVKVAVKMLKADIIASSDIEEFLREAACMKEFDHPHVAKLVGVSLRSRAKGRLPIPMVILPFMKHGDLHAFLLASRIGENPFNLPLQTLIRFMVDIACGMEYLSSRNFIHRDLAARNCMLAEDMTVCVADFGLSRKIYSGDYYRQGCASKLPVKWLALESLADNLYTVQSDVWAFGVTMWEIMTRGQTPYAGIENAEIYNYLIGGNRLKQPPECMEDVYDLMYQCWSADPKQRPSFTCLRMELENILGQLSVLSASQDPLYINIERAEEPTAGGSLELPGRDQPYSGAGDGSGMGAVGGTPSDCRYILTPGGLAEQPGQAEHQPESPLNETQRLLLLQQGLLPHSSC
Chain of Casein kinase I isoform delta (P48730 whole entry, canonical isoform): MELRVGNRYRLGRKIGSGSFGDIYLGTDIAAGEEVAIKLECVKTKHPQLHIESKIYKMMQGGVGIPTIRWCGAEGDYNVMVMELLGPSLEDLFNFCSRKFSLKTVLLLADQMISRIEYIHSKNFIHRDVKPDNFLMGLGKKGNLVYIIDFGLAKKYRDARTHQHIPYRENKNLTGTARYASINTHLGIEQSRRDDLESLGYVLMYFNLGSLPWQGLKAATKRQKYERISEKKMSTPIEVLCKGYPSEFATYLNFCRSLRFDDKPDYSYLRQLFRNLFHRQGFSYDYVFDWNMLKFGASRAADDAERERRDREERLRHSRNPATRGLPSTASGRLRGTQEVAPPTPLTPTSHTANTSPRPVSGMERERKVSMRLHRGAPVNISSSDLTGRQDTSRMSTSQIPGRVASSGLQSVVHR
Chain of Casein kinase II subunit alpha (P68400 whole entry): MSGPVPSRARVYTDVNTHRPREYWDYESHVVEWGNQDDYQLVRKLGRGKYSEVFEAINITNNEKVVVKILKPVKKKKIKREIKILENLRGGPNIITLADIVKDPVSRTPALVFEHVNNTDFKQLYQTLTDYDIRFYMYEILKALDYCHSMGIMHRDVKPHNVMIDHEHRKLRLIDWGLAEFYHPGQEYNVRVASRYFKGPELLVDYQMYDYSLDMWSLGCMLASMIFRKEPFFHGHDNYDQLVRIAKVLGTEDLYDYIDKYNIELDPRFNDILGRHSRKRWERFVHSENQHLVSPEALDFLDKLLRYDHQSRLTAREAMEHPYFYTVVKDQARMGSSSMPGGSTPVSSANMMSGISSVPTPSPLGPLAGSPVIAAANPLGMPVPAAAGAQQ
Chain of MAP/microtubule affinity-regulating kinase 3 (P27448 whole entry): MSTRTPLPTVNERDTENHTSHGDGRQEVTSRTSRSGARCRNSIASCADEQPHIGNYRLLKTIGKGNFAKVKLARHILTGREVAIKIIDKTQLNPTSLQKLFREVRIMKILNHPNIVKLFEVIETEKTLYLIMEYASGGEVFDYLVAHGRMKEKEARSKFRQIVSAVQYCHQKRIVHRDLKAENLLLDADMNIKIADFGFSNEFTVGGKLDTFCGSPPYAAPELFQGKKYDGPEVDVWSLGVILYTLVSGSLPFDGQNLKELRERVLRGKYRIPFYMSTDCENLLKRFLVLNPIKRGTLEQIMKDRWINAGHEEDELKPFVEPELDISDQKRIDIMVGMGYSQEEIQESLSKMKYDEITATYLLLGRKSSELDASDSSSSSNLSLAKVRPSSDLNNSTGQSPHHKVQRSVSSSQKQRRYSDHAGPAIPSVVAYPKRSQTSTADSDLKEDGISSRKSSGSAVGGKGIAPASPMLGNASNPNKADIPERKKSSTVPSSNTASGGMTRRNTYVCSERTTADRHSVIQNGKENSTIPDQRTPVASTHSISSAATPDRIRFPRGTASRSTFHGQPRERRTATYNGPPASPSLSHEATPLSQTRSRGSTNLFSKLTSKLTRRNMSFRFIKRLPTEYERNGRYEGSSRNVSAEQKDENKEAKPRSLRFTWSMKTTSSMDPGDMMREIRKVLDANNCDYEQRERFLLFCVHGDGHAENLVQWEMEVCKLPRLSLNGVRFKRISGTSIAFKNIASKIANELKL

In the case of CCc1oc2ccccc2c1C(=O)c1cc(Br)c(O)c(Br)c1 [BENZBROMARONE], the EC50 [1] is reported as > 160 µM (inactive).

For N#Cc1ccc2[nH]c(O)c(-c3ccc(CN4CCOCC4)cn3)c2c1 [AZD-1080], the Ki [2] was > 2 µM (inactive), the Ki [3] was > 6.31 µM (inactive) and the Ki [4] was > 10 µM (inactive). The Ki [5] was > 6.31 µM (inactive), the Ki [6] was > 2.51 µM (inactive) and the Ki [7] was > 3.98 µM (inactive). For the same molecule, the Ki [8] was > 7.94 µM (inactive).

With O=C1C=C(N2CCOCC2)c2ccccc2C1=O the IC50 [9] was 1.02 µM (active).
